Literature values, collected in patent publication US20170247690A1, “ONCOVIRAL TREATMENT WITH NUCLEASE AND CHEMOTHERAPEUTIC” (priority 2016, published 2017).

Assays:
proteasome T-L activity = conditions: animal model studies
20S proteasomes = 20S proteasomes (Homo sapiens, UniProt Q99436); conditions: purified 20S proteasomes

CC(C)C[C@H](NC(=O)[C@H](Cc1ccccc1)NC(=O)c1cnccn1)B(O)O [bortezomib]
T-L proteasome activity in vivo (proteasome T-L activity): enhances T-L proteasome activity

C[C@@]12OC(=O)[C@]1([C@@H](O)[C@@H]1C=CCCC1)NC(=O)[C@@H]2CCCl [salinosporamide A, Salinosporamide A]
EC50 for trypsin-like (T-L) activity, comparison (20S proteasomes): lower EC50 for trypsin-like (T-L) activity than does bortezomib | T-L proteasome activity in vivo (proteasome T-L activity): marked inhibition of T-L activity
